Measurements taken from patent publication US20020147196A1, “Composition and method for treating neuropathic pain” (priority 2001, published 2002).

Assays:
Type in all cases: in vivo, rat
[1] = tested on: CCI-induced tactile allodynia; test: CCI model of neuropathic pain: mechanical (tactile) allodynia assessed with Von Frey hair monofilaments
Description: (§1) All experiments were performed using the chronic constriction injury (CCI) model of neuropathic pain in the rat. Under isoflurane anaesthesia, the common left sciatic nerve of male random hooded rats (180-220 g) was exposed at mid thigh level. Four ligatures of chromic gut (4.0) were tied loosely around the nerve with a 1 mm spacing between each. The wound was then closed and secured with suture clips. The surgical procedure was identical for the sham operated animals except the sciatic nerve was not ligated. The animals were allowed a period of 10 days to recover from the surgery before any behavioural testing began. The effect of the test compound on CCI-induced decrease in mechanical paw withdrawal threshold was measured using an algesymeter (Randall & Selitto, 1957). The presence of mechanical allodynia was assessed using Von Frey hair mono filaments (range: 4.19-84.96 g). The rats were lightly restrained and placed upon a metal grid floor, from below which the monofilaments were applied to the plantar surface of the hindpaws. The lowest monofilament to produce a withdrawal was the response recorded.
(§2) All data were expressed as mean±s.e.mean. Statistical analysis was carried out to compare the difference between the drug treated group and vehicle treated groups using unpaired Student's t-test (P<0.05 considered significant).

[2] = observation of adverse side effects during chronic dosing in the CCI experiments
Description: Lamotrigine (30 mgkg^−1 b.i.d. p.o.) was dosed chronically for a period of 12 days. The dose chosen was determined from previous “in-house” data and doses believed to be efficacious in the clinical treatment of neuropathic pain.
Bupropion (10 mgkg^−1 b.i.d. p.o.) was dosed chronically for a period of 8 days. The dose chosen reflects both previous “in-house” data and that which is believed to be efficacious in the clinical treatment of neuropathic pain.

[3] = tested on: CCI-induced decrease in mechanical paw withdrawal threshold; test: chronic constriction injury (CCI) model of neuropathic pain: mechanical paw withdrawal threshold measured with an algesymeter; conditions: for known minimum effective dose in the CCI model: b.i.d. p.o., shown previously to have efficacy in the CCI model
Description: as §1, §2

[4] = bupropion 10 mgkg^−1 b.i.d. p.o., days 47-54

| Structure (SMILES) | effect on CCI-induced tactile allodynia (Von Frey hair withdrawal threshold) during chronic dosing ([1]; lamotrigine 30 mgkg^−1 b.i.d. p.o.) | effect on tactile allodynia following cessation of treatment, compared to vehicle treated group ([1]; lamotrigine 30 mgkg^−1 b.i.d. p.o., after cessation) | adverse side effects as a result of the surgery or chronic dosing schedule ([2]; lamotrigine 30 mgkg^−1 b.i.d. p.o. for 12 days) | known minimum effective dose in the CCI model [3] [mgkg^−1] | reversal of the CCI-induced decrease in paw-withdrawal threshold to that of sham-operated animals ([3]; lamotrigine 30 mgkg^−1 twice daily p.o., days 13-24 post-operative) | post-operative day until which the analgesic effect was maintained following cessation of treatment ([3]; lamotrigine 30 mgkg^−1 twice daily p.o., dosing ended day 24) [day post-operative] | post-operative day by which the decrease in paw-withdrawal threshold was fully reversed ([3]; lamotrigine 30 mgkg^−1 twice daily p.o., dosing from day 13 post-operative) [days] | reversal of tactile allodynia following cessation of treatment ([1]; bupropion 10 mgkg^−1 b.i.d. p.o., after cessation) | effect on tactile allodynia (Von Frey hair withdrawal threshold) during chronic dosing [1, 4] | day of maximal reversal of tactile allodynia ([1]; bupropion 10 mgkg^−1 b.i.d. p.o., days 47-54, last day of dosing) [days] | adverse side effects as a result of the surgery or chronic dosing schedule ([2]; bupropion 10 mgkg^−1 b.i.d. p.o. for 8 days) | effect on paw withdrawal thresholds in sham-operated rats ([3]; bupropion 10 mgkg^−1, first day of dosing only, 1 hour post dose, sham-operated rats) | reversal of the fall in paw withdrawal threshold back towards sham-operated levels after a single dose ([3]; bupropion 10 mgkg^−1, single dose) | reversal of paw withdrawal threshold during the chronic dosing period [3, 4] | time the reversal of paw withdrawal threshold was maintained following cessation of treatment [3, 4] [days] |
| --- | --- | --- | --- | --- | --- | --- | --- | --- | --- | --- | --- | --- | --- | --- | --- |
| Nc1nnc(-c2cccc(Cl)c2Cl)c(N)n1 [lamotrigine] | transient reversal | small reversal | No adverse side effects were observed | 10 | fully reversed | 37 | ≤ 16 |  |  |  |  |  |  |  |  |
| CC(NC(C)(C)C)C(=O)c1cccc(Cl)c1 (stereo not shown) [bupropion] |  |  |  | 10 |  |  |  | not maintained | some effect | 54 | No adverse side effects were observed | small effect | immediate reversal | maintained throughout the chronic dosing period | 4 |
